Test results from patent publication US7498023B2, “Blockade of T cell migration into epithelial GVHD target tissues as an approach to achieving anti-tumor effects against lymphohematopoietic malignancies without GVHD” (The General Hospital Corporation, priority 2000, dated 2009).

How the values were obtained:
[1] = Cy 50 mg/kg daily x4 with ATG, thymic irradiation, BMT; five subjects
Description: Intravenous cyclosporine (CYA) was given beginning on day −1 with conversion to p.o. CYA when tolerated. Donor leukocytes (DLI) were given on days +35, (10^7/kg CD3+ cells) and +56 (5×10^7/kg CD3+ cells) if no GVHD was present. Median subject age was 30 (range 20-45) years. All subjects had disease progression during salvage chemotherapy or radiation therapy. […] Chimerism analyses of weekly peripheral blood samples and pre-BMT, day +28, and day +100 bone marrow aspirate samples have been performed by variable number of tandem repeat sequence (VNTR) analysis (HLA matched BMT) or flow cytometry (HLA mismatched BMT).

[2] = cited from earlier work

For `O=P1(N(CCCl)CCCl)NCCCO1` (centres unmarked) [cyclophosphamide], the toxicities observed [1] is given as “reversible Cy cardiotoxicity (n=1)”, the “subjects developing a diffuse maculopapular rash” value ([2]; 24-72 hours following cyclophosphamide) is given as 10-20% and the “subjects with some hematuria” value ([2]; at this dose level (50 mg/kg x4)) is given as “Approximately 50%”. For the same compound, the “incidence of hemorrhagic cystitis” value ([2]; cyclophosphamide 50 mg/kg on days -6, -5, -4, -3) was 20% and the “total dose at which fatal cardiac failure due to hemorrhagic necrosis occurs” value ([2]; total dose (7.6 grams/m^2)) was ≥ 200 mg/kg.
